Results: US12281122B1, “PI3K inhibitors” (Cogent Biosciences, Inc., priority 2023, dated 2025)
pIC50: −log10 of the molar value. Like-named read-outs stand apart in the source and are kept apart here.

What was measured:
[1] = Mouse PK, IV and PO; details: in vivo; for clearance: read-out: PK-Mouse: IV Cl; for bioavailability: read-out: PK-Mouse: PO F (%)
[2] = target: PI3Kα H1047R (Homo sapiens, UniProt P42336, H1047R); experiment: PI3Kα H1047R enzyme assay (Transcreener ADP2 TR-FRET Red Assay); format: biochemical; details: purified recombinant full-length protein; 2 hours pre-incubation with compound
Chain of PI3Kα H1047R (P42336 whole entry H1047R): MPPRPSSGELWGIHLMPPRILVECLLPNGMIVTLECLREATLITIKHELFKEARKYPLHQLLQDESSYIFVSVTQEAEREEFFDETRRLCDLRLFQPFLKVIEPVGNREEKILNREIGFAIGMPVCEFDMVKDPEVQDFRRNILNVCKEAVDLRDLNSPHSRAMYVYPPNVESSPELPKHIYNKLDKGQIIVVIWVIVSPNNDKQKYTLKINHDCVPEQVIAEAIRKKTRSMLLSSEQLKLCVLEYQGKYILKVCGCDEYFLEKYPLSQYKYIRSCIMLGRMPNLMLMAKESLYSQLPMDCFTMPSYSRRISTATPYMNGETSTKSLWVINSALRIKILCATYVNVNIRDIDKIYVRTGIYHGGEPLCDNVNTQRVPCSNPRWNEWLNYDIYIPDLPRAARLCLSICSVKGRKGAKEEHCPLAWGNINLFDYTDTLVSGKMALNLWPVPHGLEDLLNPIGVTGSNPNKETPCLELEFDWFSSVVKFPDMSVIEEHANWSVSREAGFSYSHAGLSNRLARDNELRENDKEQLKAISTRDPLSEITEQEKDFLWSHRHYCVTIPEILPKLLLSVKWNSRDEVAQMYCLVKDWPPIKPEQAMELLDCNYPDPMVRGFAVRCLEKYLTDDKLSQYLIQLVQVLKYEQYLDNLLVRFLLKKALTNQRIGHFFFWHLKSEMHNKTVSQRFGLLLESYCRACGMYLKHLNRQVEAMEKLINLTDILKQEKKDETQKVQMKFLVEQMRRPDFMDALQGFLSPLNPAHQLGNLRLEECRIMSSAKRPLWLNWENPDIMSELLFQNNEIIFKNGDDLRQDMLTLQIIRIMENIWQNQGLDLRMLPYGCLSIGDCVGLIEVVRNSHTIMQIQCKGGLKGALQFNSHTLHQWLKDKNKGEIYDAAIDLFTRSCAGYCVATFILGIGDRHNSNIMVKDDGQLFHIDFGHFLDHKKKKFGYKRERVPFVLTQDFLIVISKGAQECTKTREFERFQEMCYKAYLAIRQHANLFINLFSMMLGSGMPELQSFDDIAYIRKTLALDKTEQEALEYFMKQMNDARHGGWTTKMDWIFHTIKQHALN
Chain of PI3Kα H1047R (P27986 2-724 partner): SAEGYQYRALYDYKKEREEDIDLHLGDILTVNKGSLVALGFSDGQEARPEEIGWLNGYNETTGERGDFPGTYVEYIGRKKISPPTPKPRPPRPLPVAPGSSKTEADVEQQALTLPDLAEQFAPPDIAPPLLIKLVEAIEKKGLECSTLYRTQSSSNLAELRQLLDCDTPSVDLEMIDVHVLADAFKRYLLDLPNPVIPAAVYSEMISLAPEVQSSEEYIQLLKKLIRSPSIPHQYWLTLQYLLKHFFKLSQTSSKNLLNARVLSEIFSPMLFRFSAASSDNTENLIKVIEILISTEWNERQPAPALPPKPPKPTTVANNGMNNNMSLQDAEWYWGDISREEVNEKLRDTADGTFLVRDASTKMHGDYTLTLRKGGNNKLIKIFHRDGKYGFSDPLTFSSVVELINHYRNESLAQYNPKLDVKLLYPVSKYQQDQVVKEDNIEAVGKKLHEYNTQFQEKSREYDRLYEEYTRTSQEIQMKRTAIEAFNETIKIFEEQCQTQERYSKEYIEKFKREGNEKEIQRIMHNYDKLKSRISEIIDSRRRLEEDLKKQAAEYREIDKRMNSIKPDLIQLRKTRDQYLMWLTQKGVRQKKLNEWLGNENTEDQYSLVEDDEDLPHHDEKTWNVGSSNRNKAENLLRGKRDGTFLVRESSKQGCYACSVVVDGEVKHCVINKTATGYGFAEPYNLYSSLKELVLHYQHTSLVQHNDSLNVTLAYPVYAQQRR
How it was run: (§1)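 Purified recombinant full-length enzymes pre-incubated 2 h at room temperature with compounds (11-point 1:3 dilutions, typically 50,000–0.85 nM), then started with ATP/PI(4,5)P2 diC8 and run 60 min at room temperature in 40 mM HEPES pH 7.5, 20 mM NaCl, 25 mM MgCl2, 0.01% Triton X-100. ADP detected by TR-FRET 665/615 ratio; IC50 from four-parameter fit of percent of control.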

[3] = system: SKBR3 (PI3Kα-Wild Type) cell line; experiment: HTRF phospho-AKT(S473) cell assay in SKBR3 cells; format: cell-based, human; details: Homo sapiens, SK-BR-3; SKBR3 (PI3Kα-Wild Type) cells, HTRF phospho-AKT(S473), 2 hours compound incubation, PDGF-BB stimulated
How it was run: (§2)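 HTRF read-out of phospho-AKT(S473) in lysates gave IC50 values after 2 h compound exposure at 37° C. Dose series was 12 points at 1:3, topping at 5 μM for T47D and 10 μM for SKBR3. Only SKBR3 received 70 ng/ml PDGF-BB during the last 15 minutes.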

[4] = target: PI3Kα (Homo sapiens, UniProt P42336); experiment: PI3Kα enzyme assay (Transcreener ADP2 TR-FRET Red Assay); format: biochemical; details: purified recombinant full-length protein; 2 hours pre-incubation with compound; read-out: PI3Kα WT IC50
Chain of PI3Kα (P42336 whole entry): as the sequence (P42336 whole entry H1047R) above, with R1047H counted along it
Chain of PI3Kα (P27986 2-724 partner): as the sequence (P27986 2-724 partner) above
How it was run: as §1

[5] = system: T47D (PI3Kα-H1047R) cell line; experiment: HTRF phospho-AKT(S473) cell assay in T47D cells; format: cell-based, human; details: Homo sapiens; T47D (PI3Kα-H1047R) cells, HTRF phospho-AKT(S473), 2 hours compound incubation
How it was run: as §2

[6] = IV dose 3 mg/kg, read-out: PK-Mouse: IV-AUCinf
[7] = PO dose 30 mg/kg, 20% Captisol (aq), fed
[8] = PO dose 30 mg/kg, 20% Captisol (aq), fed, read-out: PK-Mouse: PO AUCinf

Structure (SMILES)	clearance ([1]; IV dose 3 mg/kg) [mL/min/kg]	AUC(0-inf) [1, 6] [ng·h/mL]	Cmax [1, 7] [ng/mL]	AUC(0-inf) [1, 8] [ng·h/mL]	bioavailability [1, 7] [%]	pIC50 [2]	pIC50 [3]	pIC50 [4]	pIC50 [5]
Cc1cc([C@@H](C)Nc2ccc(Cl)nc2C(=O)NS(C)(=O)=O)c2nc(N3Cc4ccc(F)cc4C3)n(C)c(=O)c2c1 [Compound 1, (R)-6-chloro-3-((1-(2-(5-fluoroisoindolin-2-yl)-3,6-dimethyl-4-oxo-3,4-dihydroquinazolin-8-yl)ethyl)amino)-N-(methylsulfonyl)picolinamide]	0.74	67500	35500	548000	81	6.00 to 6.30	5.30 to 6.00	≤ 6.00	> 6.60
Cc1cc([C@H](C)Nc2cn(C)nc2C(=O)NS(C)(=O)=O)c2nc(N3Cc4ccc(F)cc4C3)n(C)c(=O)c2c1 (single isomer, unassigned) [Compound 107, 4-((1-(2-(5-fluoroisoindolin-2-yl)-3,6-dimethyl-4-oxo-3,4-dihydroquinazolin-8-yl)ethyl)amino)-1-methyl-N-(methylsulfonyl)-1H-pyrazole-3-carboxamide]						≤ 6.00	≤ 5.30	≤ 6.00	5.30 to 6.00
Cc1cc([C@@H](C)Nc2ccc(F)cc2C(=O)NS(C)(=O)=O)c2nc(N3CCC(F)(F)CC3)n(C)c(=O)c2c1 [Compound 62, (R)-2-((1-(2-(4,4-difluoropiperidin-1-yl)-3,6-dimethyl-4-oxo-3,4-dihydroquinazolin-8-yl)ethyl)amino)-5-fluoro-N-(methyl-sulfonyl)benzamide]						> 7.00	5.30 to 6.00	≤ 6.00	5.30 to 6.00
C[C@@H](Nc1ccc(Cl)nc1C(=O)NS(C)(=O)=O)c1cc(F)cc2c(=O)n(C)c(N3CCC(F)(F)CC3)nc12 [Compound 3, (R)-6-chloro-3-((1-(2-(4,4-difluoropiperidin-1-yl)-6-fluoro-3-methyl-4-oxo-3,4-dihydroquinazolin-8-yl)ethyl)amino)-N-(methylsulfonyl) picolinamide]						6.30 to 6.60	5.30 to 6.00	≤ 6.00	> 6.60
Cc1cc([C@@H](C)Nc2cc(C)c(Cl)nc2C(=O)NS(C)(=O)=O)c2nc(N3Cc4ccc(F)cc4C3)n(C)c(=O)c2c1 [Compound 35, (R)-6-chloro-3-((1-(2-(5-fluoroisoindolin-2-yl)-3,6-dimethyl-4-oxo-3,4-dihydroquinazolin-8-yl)ethyl)amino)-5-methyl-N-(methylsulfonyl) picolinamide]						≤ 6.00	≤ 5.30	≤ 6.00	5.30 to 6.00
Cc1cc([C@@H](C)Nc2ccc(Cl)nc2C(=O)NS(C)(=O)=O)c2nc(-c3cnc(C)s3)n(C)c(=O)c2c1 [Compound 89, (R)-6-chloro-3-((1-(3,6-dimethyl-2-(2-methylthiazol-5-yl)-4-oxo-3,4-dihydroquinazolin-8-yl)ethyl)amino)-N-(methylsulfonyl) picolinamide]						6.60 to 7.00	5.30 to 6.00	6.00 to 6.30	> 6.60
Cc1cc([C@@H](C)Nc2ccc(Cl)nc2C(=O)NS(C)(=O)=O)c2nc(-c3cccnc3C)n(C)c(=O)c2c1 [Compound 85, (R)-6-chloro-3-((1-(3,6-dimethyl-2-(2-methylpyridin-3-yl)-4-oxo-3,4-dihydroquinazolin-8-yl)ethyl)amino)-N-(methylsulfonyl) picolinamide]						≤ 6.00	≤ 5.30	≤ 6.00	5.30 to 6.00
Cc1cc([C@@H](C)Nc2ccc(Cl)nc2C(=O)NS(C)(=O)=O)c2nc(N3CC4(COC4)C3)n(C)c(=O)c2c1 [Compound 46, (R)-6-chloro-3-((1-(3,6-dimethyl-4-oxo-2-(2-oxa-6-azaspiro[3.3]heptan-6-yl)-3,4-dihydroquinazolin-8-yl)ethyl)amino)-N-(methylsulfonyl) picolinamide]						≤ 6.00	5.30 to 6.00	≤ 6.00	6.00 to 6.30
Cc1cc([C@@H](C)Nc2ccc(Cl)nc2C(=O)NS(C)(=O)=O)c2nc(N3C[C@@H]4C[C@H]3CO4)n(C)c(=O)c2c1 [Compound 27, 3-(((R)-1-(2-((1S,4S)-2-oxa-5-azabicyclo[2.2.1]heptan-5-yl)-3,6-dimethyl-4-oxo-3,4-dihydroquinazolin-8-yl)ethyl)amino)-6-chloro-N-(methylsulfonyl) picolinamide]						6.00 to 6.30	5.30 to 6.00	≤ 6.00	> 6.60
Cc1cc([C@@H](C)Nc2ccc(Cl)nc2S(=O)(=O)NC(=O)C(C)C)c2nc(N3Cc4ccc(F)cc4C3)n(C)c(=O)c2c1 [Compound 80, (R)-N-((6-chloro-3-((1-(2-(5-fluoroisoindolin-2-yl)-3,6-dimethyl-4-oxo-3,4-dihydroquinazolin-8-yl)ethyl)amino)pyridin-2-yl)sulfonyl)isobutyramide]						6.60 to 7.00	≤ 5.30	≤ 6.00	6.00 to 6.30
Cc1cc([C@@H](C)Nc2ccc(Cl)nc2C(=O)NS(C)(=O)=O)c2nc(N3CCC(F)(F)C[C@H]3C)n(C)c(=O)c2c1 (single isomer, unassigned) [Compound 41, 6-chloro-3-(((R)-1-(2-((R*)-4,4-difluoro-2-methylpiperidin-1-yl)-3,6-dimethyl-4-oxo-3,4-dihydroquinazolin-8-yl)ethyl)amino)-N-(methylsulfonyl) picolinamide]						6.00 to 6.30	5.30 to 6.00	≤ 6.00	6.30 to 6.60
Cc1cc([C@H](C)Nc2ccccc2S(N)(=O)=O)c2nc(N3Cc4ccc(F)cc4C3)n(C)c(=O)c2c1 (single isomer, unassigned) [Compound 105, 2-((1-(2-(5-fluoroisoindolin-2-yl)-3,6-dimethyl-4-oxo-3,4-dihydroquinazolin-8-yl)ethyl)amino) benzenesulfonamide]						≤ 6.00	≤ 5.30	≤ 6.00	5.30 to 6.00
Cc1cc([C@@H](C)Nc2ccc(Cl)nc2C(=O)O)c2nc(N3Cc4ccc(F)cc4C3)n(C)c(=O)c2c1 [Compound 1 acid derivative, (R)-6-chloro-3-((1-(2-(5-fluoroisoindolin-2-yl)-3,6-dimethyl-4-oxo-3,4-dihydroquinazolin-8-yl)ethyl)amino)picolinic acid, reference compound]	24.3	2070	2490	8850	43				
CNC(=O)NS(=O)(=O)c1nc(Cl)ccc1N[C@H](C)c1cc(C)cc2c(=O)n(C)c(N3Cc4ccc(F)cc4C3)nc12 [Compound 70, (R)-6-chloro-3-((1-(2-(5-fluoro-isoindolin-2-yl)-3,6-dimethyl-4-oxo-3,4-dihydroquinazolin-8-yl)ethyl)amino)-N-(methylcarb-amoyl)pyridine-2-sulfonamide]						6.30 to 6.60	≤ 5.30	≤ 6.00	5.30 to 6.00
Cc1cc([C@@H](C)Nc2ccc(Cl)cc2C(=O)NS(C)(=O)=O)c2nc(N3Cc4ccc(F)cc4C3)n(C)c(=O)c2c1 [Compound 64, (R)-5-chloro-2-((1-(2-(5-fluoro-isoindolin-2-yl)-3,6-dimethyl-4-oxo-3,4-dihydroquinazolin-8-yl)ethyl)amino)-N-(methylsulfonyl) benzamide]						≤ 6.00	5.30 to 6.00	≤ 6.00	5.30 to 6.00
Cc1cc([C@@H](C)Nc2ccc(Cl)nc2C(=O)NS(C)(=O)=O)c2nc(-c3ccc(F)cn3)n(C)c(=O)c2c1 [Compound 88, (R)-6-chloro-3-((1-(2-(5-fluoropyridin-2-yl)-3,6-dimethyl-4-oxo-3,4-dihydroquinazolin-8-yl)ethyl)amino)-N-(methylsulfonyl) picolinamide]						≤ 6.00	5.30 to 6.00	≤ 6.00	6.30 to 6.60
